Data set [1] concerns Salmonella typhimurium. The data set is described as follows: Mutagenicity in Salmonella typhimurium TA100 up to 5000 ug/ml by Ames test in presence of rat S9 fraction. To be noted: salmonella enterica subsp. enterica serovar typhimurium. In kind it is toxicity, organism-based. Background: In the Ames test, an excess of revertant colonies over the control signals mutagenicity.

For data set [2], the system named is Salmonella typhimurium. As to the kind of experiment: Mutagenicity in Salmonella typhimurium TA98 up to 2000 ug/ml by Ames fluctuation test. In kind it is toxicity, organism-based. To be noted: salmonella enterica subsp. enterica serovar typhimurium.
The subject of data set [3] is Salmonella typhimurium. The data set is described as follows: Mutagenicity in Salmonella typhimurium TA98 up to 5000 ug/ml by Ames test in presence of rat S9 fraction. In kind it is toxicity, organism-based. To be noted: salmonella enterica subsp. enterica serovar typhimurium.
Data set [4] has as its system Escherichia coli. The data set is described as follows: Mutagenicity in Escherichia coli WP2uvrA up to 5000 ug/ml by Ames test in presence of rat S9 fraction. In kind it is toxicity, organism-based.
Data set [5] deals with Salmonella typhimurium. The data set is described as follows: Mutagenicity in Salmonella typhimurium TA100 up to 5000 ug/ml by Ames test in absence of rat S9 fraction. Format: toxicity, organism-based. To be noted: salmonella enterica subsp. enterica serovar typhimurium.
Data set [6] deals with Phosphatidylinositol 4,5-bisphosphate 3-kinase catalytic subunit gamma isoform (Homo sapiens, UniProt P48736). As to the kind of experiment: Inhibition of human PI3Kgamma using PtdIns/PtdSer as substrate after 2 hrs by scintillation counting analysis in presence of gamma[33P]ATP.
Data set [7] deals with Escherichia coli. As to the kind of experiment: Mutagenicity in Escherichia coli WP2uvrA up to 5000 ug/ml by Ames test in absence of rat S9 fraction. Format: toxicity, organism-based.
Data set [8] deals with Salmonella typhimurium. As to the kind of experiment: Mutagenicity in Salmonella typhimurium TA98 up to 5000 ug/ml by Ames test in absence of rat S9 fraction. Format: toxicity, organism-based. To be noted: salmonella enterica subsp. enterica serovar typhimurium.
In data set [9] the test system is Salmonella typhimurium. The data set is described as follows: Mutagenicity in Salmonella typhimurium TA100 up to 2000 ug/ml by Ames fluctuation test. Format: toxicity, organism-based. To be noted: salmonella enterica subsp. enterica serovar typhimurium.
In data set [10] the target is Phosphatidylinositol 4,5-bisphosphate 3-kinase catalytic subunit gamma isoform (Mus musculus, UniProt Q9JHG7). As to the kind of experiment: Inhibition of PI3Kgamma in mouse RAW264.7 cells assessed as C5a-mediated PKB/Akt phosphorylation preincubated for 30 mins followed by C5a stimulation measured after 5 mins. In kind it is cell-based.
Data set [11] is described as follows: Metabolic stability in human hepatocytes assessed as compound remaining at 5 uM after 1 hr by LC-MS/MS analysis. In kind it is ADME, cell-based, Hepatocyte. To be noted: read-out: Stability.
A short description of data set [12]: Cmax in Sprague-Dawley rat at 30 mg/kg, po. Format: ADME, organism-based. Set-up: dose 30 mg/kg, route oral. To be noted: in vivo.
The next data set relates to Mus musculus. The data set is described as follows: Antiarthritic activity in po dosed DBA/1 mouse assessed as suppression of acute collagen-induced arthritis administered as bid for 14 days. Format: functional, organism-based.
The target in the next data set is Cytochrome P450 2C9 (Homo sapiens, UniProt P11712). As to the kind of experiment: Inhibition of CYP2C9 (unknown origin) up to 10 uM. In kind it is ADME.
A short description of data set [13]: AUC (0 to 8 hrs) in Sprague-Dawley rat at 30 mg/kg, po. The arrangement: time < 8 hr, dose 30 mg/kg, route oral. Format: ADME, organism-based. To be noted: plasma.
Data set [14] is described as follows: Metabolic stability in rat liver microsomes assessed as compound remaining at 5 uM after 15 mins by LC-MS/MS analysis. In kind it is ADME. To be noted: read-out: Stability.
For a further data set, the target named is Cytochrome P450 3A4 (Homo sapiens, UniProt P08684). The data set is described as follows: Inhibition of CYP3A4 (unknown origin) up to 10 uM. In kind it is ADME.
The target of a further data set is Cytochrome P450 2C19 (Homo sapiens, UniProt P33261). As to the kind of experiment: Inhibition of CYP2C19 (unknown origin) up to 10 uM. In kind it is ADME.
Data set [15] in a line: Metabolic stability in rat hepatocytes assessed as compound remaining at 5 uM after 1 hr by LC-MS/MS analysis. In kind it is ADME, cell-based, Hepatocyte. To be noted: read-out: Stability.
A further data set addresses Cytochrome P450 2D6 (Homo sapiens, UniProt P10635). The data set is described as follows: Inhibition of CYP2D6 (unknown origin) up to 10 uM. Format: ADME.
A short description of data set [16]: Metabolic stability in human liver microsomes assessed as compound remaining at 5 uM after 15 mins by LC-MS/MS analysis. In kind it is ADME. To be noted: read-out: Stability. (In general: Microsomes from liver hold many membrane-bound enzymes, among them those of drug oxidation.)
The target of a further data set is T1, Cytochrome P450 1A2 (Homo sapiens, UniProt P05177).
T1 sequence (P05177 whole entry): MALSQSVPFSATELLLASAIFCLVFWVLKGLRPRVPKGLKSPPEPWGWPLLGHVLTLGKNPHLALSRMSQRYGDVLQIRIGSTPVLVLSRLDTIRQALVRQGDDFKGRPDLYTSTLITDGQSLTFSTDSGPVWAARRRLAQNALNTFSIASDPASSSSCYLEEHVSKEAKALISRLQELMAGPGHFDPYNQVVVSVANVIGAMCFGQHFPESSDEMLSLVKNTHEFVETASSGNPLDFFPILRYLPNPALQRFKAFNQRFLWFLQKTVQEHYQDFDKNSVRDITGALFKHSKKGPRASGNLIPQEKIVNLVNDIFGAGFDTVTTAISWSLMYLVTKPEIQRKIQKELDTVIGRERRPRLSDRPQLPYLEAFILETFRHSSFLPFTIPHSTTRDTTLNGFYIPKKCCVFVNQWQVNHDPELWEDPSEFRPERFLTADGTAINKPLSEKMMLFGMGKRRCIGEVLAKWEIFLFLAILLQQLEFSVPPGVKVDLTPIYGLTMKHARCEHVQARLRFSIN
As to the kind of experiment: Inhibition of CYP1A2 (unknown origin) up to 10 uM. Format: ADME.

Chain of Phosphatidylinositol 4,5-bisphosphate 3-kinase catalytic subunit gamma isoform (Mus musculus, UniProt Q9JHG7) (Q9JHG7 whole entry, canonical isoform): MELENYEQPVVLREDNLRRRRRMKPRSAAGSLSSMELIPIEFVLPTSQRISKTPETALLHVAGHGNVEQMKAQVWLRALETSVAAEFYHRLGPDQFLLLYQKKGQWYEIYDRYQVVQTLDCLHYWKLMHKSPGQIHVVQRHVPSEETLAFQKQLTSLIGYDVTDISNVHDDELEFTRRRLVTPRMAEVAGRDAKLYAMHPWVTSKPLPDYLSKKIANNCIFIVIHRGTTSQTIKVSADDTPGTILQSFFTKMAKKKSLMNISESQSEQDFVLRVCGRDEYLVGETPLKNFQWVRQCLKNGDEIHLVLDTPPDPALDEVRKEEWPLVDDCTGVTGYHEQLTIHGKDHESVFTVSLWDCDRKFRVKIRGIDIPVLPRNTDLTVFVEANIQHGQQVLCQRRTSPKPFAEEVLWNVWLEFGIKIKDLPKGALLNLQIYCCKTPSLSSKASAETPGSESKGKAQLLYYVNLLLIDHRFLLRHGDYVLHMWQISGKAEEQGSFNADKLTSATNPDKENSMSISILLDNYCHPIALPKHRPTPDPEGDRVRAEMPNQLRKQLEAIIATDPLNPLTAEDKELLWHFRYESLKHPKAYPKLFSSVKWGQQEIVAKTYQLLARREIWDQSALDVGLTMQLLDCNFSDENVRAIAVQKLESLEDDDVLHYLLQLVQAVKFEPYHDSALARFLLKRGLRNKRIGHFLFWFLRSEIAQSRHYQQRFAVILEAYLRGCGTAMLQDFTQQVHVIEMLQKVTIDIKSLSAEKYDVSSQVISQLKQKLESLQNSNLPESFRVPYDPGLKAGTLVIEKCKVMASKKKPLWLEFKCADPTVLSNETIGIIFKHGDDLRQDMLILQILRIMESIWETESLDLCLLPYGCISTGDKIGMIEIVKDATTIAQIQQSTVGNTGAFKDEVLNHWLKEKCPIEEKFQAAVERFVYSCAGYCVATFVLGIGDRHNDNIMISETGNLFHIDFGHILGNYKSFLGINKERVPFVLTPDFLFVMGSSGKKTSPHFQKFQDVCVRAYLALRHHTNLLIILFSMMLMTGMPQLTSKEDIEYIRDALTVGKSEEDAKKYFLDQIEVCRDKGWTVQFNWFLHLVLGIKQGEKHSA
Chain of Phosphatidylinositol 4,5-bisphosphate 3-kinase catalytic subunit gamma isoform (Homo sapiens, UniProt P48736) (P48736 whole entry, canonical isoform): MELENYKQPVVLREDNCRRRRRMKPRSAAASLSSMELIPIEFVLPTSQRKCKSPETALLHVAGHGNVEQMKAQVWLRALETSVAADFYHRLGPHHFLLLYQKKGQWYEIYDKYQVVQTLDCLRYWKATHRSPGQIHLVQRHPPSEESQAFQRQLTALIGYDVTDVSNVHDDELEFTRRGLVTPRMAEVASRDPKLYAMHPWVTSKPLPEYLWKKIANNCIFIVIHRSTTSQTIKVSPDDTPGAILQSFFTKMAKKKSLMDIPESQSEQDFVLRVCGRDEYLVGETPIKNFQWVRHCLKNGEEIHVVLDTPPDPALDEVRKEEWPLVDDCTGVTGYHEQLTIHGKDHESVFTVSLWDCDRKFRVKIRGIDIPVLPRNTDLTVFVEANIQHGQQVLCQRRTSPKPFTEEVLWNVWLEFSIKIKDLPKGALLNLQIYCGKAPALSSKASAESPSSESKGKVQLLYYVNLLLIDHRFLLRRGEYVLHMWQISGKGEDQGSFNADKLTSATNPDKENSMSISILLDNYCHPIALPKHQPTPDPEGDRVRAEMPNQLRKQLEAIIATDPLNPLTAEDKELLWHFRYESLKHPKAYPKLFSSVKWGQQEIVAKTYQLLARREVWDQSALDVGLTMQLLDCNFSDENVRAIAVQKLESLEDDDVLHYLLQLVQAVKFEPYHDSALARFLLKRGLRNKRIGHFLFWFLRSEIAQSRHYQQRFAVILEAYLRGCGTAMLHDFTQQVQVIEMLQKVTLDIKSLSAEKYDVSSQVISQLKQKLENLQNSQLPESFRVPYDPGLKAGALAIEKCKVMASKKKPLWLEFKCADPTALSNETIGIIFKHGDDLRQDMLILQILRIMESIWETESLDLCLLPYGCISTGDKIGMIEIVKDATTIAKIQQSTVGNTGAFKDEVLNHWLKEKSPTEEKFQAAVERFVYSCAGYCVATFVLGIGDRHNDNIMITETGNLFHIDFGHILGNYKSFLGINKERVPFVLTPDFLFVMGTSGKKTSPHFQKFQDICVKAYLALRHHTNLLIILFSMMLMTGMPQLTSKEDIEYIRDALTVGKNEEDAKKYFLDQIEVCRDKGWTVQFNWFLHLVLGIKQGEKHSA
Chain of Cytochrome P450 2D6 (P10635 whole entry): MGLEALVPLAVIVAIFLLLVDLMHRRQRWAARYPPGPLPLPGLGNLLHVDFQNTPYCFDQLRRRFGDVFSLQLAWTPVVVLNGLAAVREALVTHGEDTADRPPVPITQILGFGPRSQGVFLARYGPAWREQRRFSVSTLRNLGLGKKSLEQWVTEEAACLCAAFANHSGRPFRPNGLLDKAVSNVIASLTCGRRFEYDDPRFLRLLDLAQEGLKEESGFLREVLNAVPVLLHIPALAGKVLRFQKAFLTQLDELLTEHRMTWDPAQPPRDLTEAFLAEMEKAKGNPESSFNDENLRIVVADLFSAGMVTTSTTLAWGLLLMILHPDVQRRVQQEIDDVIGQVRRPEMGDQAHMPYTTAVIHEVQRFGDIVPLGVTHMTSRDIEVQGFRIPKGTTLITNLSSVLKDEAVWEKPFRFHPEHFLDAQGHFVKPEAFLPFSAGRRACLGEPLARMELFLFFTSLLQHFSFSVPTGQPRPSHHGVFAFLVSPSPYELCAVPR
Chain of Cytochrome P450 2C19 (P33261 whole entry): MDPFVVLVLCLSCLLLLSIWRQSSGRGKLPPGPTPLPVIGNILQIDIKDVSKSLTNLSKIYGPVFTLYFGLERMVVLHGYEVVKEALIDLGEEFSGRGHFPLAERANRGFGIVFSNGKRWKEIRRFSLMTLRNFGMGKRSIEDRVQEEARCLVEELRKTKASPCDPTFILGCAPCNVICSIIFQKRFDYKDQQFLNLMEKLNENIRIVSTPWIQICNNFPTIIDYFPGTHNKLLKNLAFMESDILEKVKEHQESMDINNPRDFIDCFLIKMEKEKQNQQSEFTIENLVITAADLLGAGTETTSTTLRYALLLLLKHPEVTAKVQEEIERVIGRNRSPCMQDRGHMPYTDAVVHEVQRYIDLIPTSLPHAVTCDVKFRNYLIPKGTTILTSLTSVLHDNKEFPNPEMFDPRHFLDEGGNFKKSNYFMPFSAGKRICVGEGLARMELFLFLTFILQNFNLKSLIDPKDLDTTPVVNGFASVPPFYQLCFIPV
Chain of Cytochrome P450 3A4 (P08684 whole entry): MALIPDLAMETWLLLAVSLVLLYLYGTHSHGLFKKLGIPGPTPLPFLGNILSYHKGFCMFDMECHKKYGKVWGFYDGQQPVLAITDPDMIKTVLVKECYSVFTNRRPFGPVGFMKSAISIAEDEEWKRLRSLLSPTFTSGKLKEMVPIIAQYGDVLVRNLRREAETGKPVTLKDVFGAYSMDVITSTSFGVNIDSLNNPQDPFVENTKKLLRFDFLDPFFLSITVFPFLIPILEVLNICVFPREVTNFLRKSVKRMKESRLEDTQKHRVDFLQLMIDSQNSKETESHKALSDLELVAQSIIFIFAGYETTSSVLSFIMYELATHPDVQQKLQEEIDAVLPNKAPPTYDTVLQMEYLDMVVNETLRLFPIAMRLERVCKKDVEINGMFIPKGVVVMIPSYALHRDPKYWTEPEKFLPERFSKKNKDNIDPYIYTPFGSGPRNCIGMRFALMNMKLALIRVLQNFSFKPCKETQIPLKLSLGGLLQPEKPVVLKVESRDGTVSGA
Chain of Cytochrome P450 2C9 (P11712 whole entry): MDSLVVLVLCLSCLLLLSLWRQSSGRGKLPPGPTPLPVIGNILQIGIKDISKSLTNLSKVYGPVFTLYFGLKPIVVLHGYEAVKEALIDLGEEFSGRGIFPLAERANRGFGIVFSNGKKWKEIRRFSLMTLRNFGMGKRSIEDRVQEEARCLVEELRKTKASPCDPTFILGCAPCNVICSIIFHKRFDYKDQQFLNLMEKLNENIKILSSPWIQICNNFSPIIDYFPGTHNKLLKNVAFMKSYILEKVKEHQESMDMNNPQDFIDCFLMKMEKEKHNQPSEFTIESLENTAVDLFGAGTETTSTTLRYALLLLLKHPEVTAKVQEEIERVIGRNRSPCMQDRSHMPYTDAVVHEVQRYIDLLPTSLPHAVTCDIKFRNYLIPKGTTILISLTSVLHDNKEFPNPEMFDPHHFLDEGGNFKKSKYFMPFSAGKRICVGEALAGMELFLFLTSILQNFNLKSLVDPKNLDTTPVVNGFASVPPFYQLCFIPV

For `Cc1nc(N)sc1-c1nc(C(C)(C)C)no1`, the Activity entry in the data set on Salmonella typhimurium [1], with Salmonella typhimurium [2], in the data set on Salmonella typhimurium [3], in the data set on Escherichia coli [4], in the data set on Salmonella typhimurium [5] and with Escherichia coli [7] was “Non-toxic” throughout. Moreover, the Activity entry with Salmonella typhimurium [8] and with Salmonella typhimurium [9] was “Non-toxic” in each case. For the same compound, the IC50 in [6] came to 0.068 µM.
For `CC(=O)Nc1nc(C)c(-c2nc(C3CCOC3)no2)s1` (stereo not drawn), the IC50 in [10] was determined as 0.558 µM; in [6], 0.057 µM.
For the compound `COCC(C)(C)Cc1noc(-c2sc(NC(C)=O)nc2C)n1`, the IC50 in data set [6] worked out at 0.068 µM.
In the case of `CC(=O)Nc1nc(C)c(-c2nc(N3CCCC(O)C3)no2)s1` (stereo not drawn), the Activity result in the data set with Salmonella typhimurium [1] was “Non-toxic”; in the data set with Salmonella typhimurium [2] it was “Non-toxic”; in the data set with Salmonella typhimurium [3], “Non-toxic”; in the data set with Escherichia coli [4], “Non-toxic”; in the data set on Salmonella typhimurium [5], “Non-toxic”; in the data set with Mus musculus, “Dose-dependent effect”. Moreover, the Activity result in the data set on Escherichia coli [7], in the data set with Salmonella typhimurium [8] and with Salmonella typhimurium [9] was “Non-toxic” in each case. Besides, the IC50 in data set [10] amounted to 0.294 µM; in data set [6], 0.029 µM. For the same compound, the remaining at 1 h, 5 µM is 75.7% in data set [11] and 62.1% in [15]. Besides, the Cmax in data set [12] was determined as 3.92 µg/mL. In addition, the “inhibition (INH)” value against Cytochrome P450 2C9, on Cytochrome P450 3A4, at Cytochrome P450 2C19, against Cytochrome P450 2D6 and on Cytochrome P450 1A2 was “Not Active” each time. The compound further registered an AUC(0-t) at 8 h in data set [13] of 10.8 µg·h/mL. Further, the remaining at 0.25 h, 5 µM in data set [14] worked out at 97.1%; in data set [16], 96.9%.
In the case of `CC(=O)Nc1nc(C)c(-c2nc(CC(C)(C)O)no2)s1`, the IC50 in [6] came to 0.068 µM.
Consider `CC(=O)Nc1nc(C)c(-c2nc(C(C)(C)C)no2)s1`, for which the IC50 is 0.231 µM in data set [10] and 0.014 µM in [6].
For `CC(=O)Nc1nc(C)c(-c2nc(CCCO)no2)s1`, the IC50 in [6] was determined as 0.121 µM.
For the compound `CC(=O)Nc1nc(C)c(-c2nc(CC(F)(F)F)no2)s1`, the results for the IC50 in data set [10] and in data set [6] were 0.278 µM and 0.028 µM, respectively. In data set [12], this compound yielded a Cmax of 0.345 µg/mL. The same compound had an AUC(0-t) at 8 h in data set [13] of 1.18 µg·h/mL. In addition, the figures for the remaining at 0.25 h, 5 µM in [14] and in [16] were 72.9% and 79.1%, respectively.
Consider `CC(=O)Nc1nc(C)c(-c2nc(N3CCOCC3)no2)s1`, for which the half-inhibitory concentration (IC50) in data set [6] came to 0.1 µM.
As to `CC(=O)Nc1nc(C)c(-c2nc(CCO)no2)s1`, the IC50 in data set [6] was 0.158 µM.
In the case of `CC(=O)Nc1nc(C)c(-c2cnc(C(C)(C)C)o2)s1`, the Activity result with Salmonella typhimurium [1], in the data set with Salmonella typhimurium [3], in the data set on Escherichia coli [4], in the data set with Salmonella typhimurium [5], in the data set with Escherichia coli [7] and in the data set with Salmonella typhimurium [8] was “Non-toxic” each time.
As to `CC(=O)Nc1nc(C)c(-c2nc(CC(C)(C)CO)no2)s1`, the IC50 in [10] was 0.191 µM; in data set [6] it was 0.0072 µM. Also, the remaining at 1 h, 5 µM in data set [11] was 9.3%; in [15], 11.3%. This compound also showed a Cmax in data set [12] of 0.038 µg/mL. For the same compound, in data set [13], the exposure AUC(0-t) at 8 h was 0.092 µg·h/mL. In addition, the figures for the remaining at 0.25 h, 5 µM in data set [14] and in data set [16] were 94% and 102%, respectively.
Take `CC(=O)Nc1nc(C)c(-c2nc(C(C)(C)CCO)no2)s1`: the IC50 in [6] came to 0.062 µM.
Turning to `Cc1nc(N)sc1-c1nc(N2CCCC(O)C2)no1` (stereo not drawn), the Activity result with Salmonella typhimurium [1], in the data set with Salmonella typhimurium [2], with Salmonella typhimurium [3], in the data set with Escherichia coli [4], in the data set on Salmonella typhimurium [5] and in the data set on Escherichia coli [7] was “Non-toxic” throughout. The Activity entry in the data set on Salmonella typhimurium [8] and in the data set with Salmonella typhimurium [9] was “Non-toxic” throughout.
Turning to `Cc1nc(N)sc1-c1cnc(C(C)(C)C)o1`, the Activity entry with Salmonella typhimurium [1], with Salmonella typhimurium [2], with Salmonella typhimurium [3], in the data set with Escherichia coli [4], with Salmonella typhimurium [5] and with Escherichia coli [7] was “Toxic” throughout. Moreover, the Activity entry with Salmonella typhimurium [8] and with Salmonella typhimurium [9] was “Toxic” throughout. For the same compound, in data set [6], the IC50 amounted to 0.081 µM.
With `CC(=O)Nc1nc(C)c(-c2nc(C(C)(C)CO)no2)s1`, the IC50 in data set [6] was 0.052 µM.
For `CC(=O)Nc1nc(C)c(-c2nc(CCC(C)(C)O)no2)s1`, in [6], the IC50 is 0.203 µM.
As to `CC(=O)Nc1nc(C)c(-c2nc(CC(C)(C)C(C)O)no2)s1` (stereo not drawn), the IC50 in data set [10] amounted to 0.155 µM; in [6] it was 0.017 µM. In addition, the remaining at 1 h, 5 µM in data set [11] amounted to 35.2%; in [15], 20.9%. This compound also displayed a Cmax in [12] of 7.8 µg/mL. The AUC(0-t) at 8 h in data set [13] came to 10.9 µg·h/mL. Moreover, the remaining at 0.25 h, 5 µM is 91.5% in data set [14] and 94.1% in data set [16].

In general, IC50 refers to the concentration needed to halve the response being measured. Broadly, the Cmax is the maximum level reached in the sampled fluid or tissue. As a reminder, the AUC(0-t) is exposure summed from dosing to a finite time, without extrapolation to infinity. Low values mean low exposure, high ones high exposure.

The values are drawn from ChEMBL document CHEMBL3091363, “Discovery of N-{5-[3-(3-hydroxypiperidin-1-yl)-1,2,4-oxadiazol-5-yl]-4-methyl-1,3-thiazol-2-yl}acetamide (TASP0415914) as an orally potent phosphoinositide 3-kinase γ inhibitor for the treatment of inflammatory diseases” (Bioorg Med Chem, 2013).
